{"source": "patent US20020132021A1", "about": "“Elicited plant products” (priority 1997, published 2002)", "origin": "cited, not measured here", "system": "indole alkaloid pathway", "settings": "jasmonic acid addition, dosage studies"}
{"smiles": "CC/C=C\\C[C@H]1C(=O)CC[C@@H]1CC(=O)O", "note": "[Jasmonic acid]", "values": [{"measurement": "increase in the specific yield of ajmalicine", "result": 80, "unit": "%"}, {"measurement": "increase in the specific yield of horhammericine", "result": 500, "unit": "%"}, {"measurement": "increase in the specific yield of lochnericine", "result": 150, "unit": "%"}, {"measurement": "increase in the specific yield of serpentine", "result": 60, "unit": "%"}]}
